Ten molecules from PubChem BioAssay (NCI) can be followed below.

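Assay format: 96-well plates, 48-hour exposure. At the GI50, growth is halved. TGI denotes the concentration required for complete inhibition of growth.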

Holding throughout (assay): inhibition of tumour cell growth, NCI panel, 48 h
For test [1], the system named is MDA-MB-435.
Test [2] concerns OVCAR-3 ovarian.
The test system of test [3] is PC-3 prostate.
Test [4] deals with SK-MEL-28 melanoma.
The subject of test [5] is NCI-H522 lung.
The subject of test [6] is 786-0 renal.
For test [7], the system named is MOLT-4 leukemia.
The test system of test [8] is OVCAR-5 ovarian.
Test [9] relates to MDA-MB-231 breast.
For test [10], the system named is HOP-62 NSCLC.

With `O=c1cc(-c2ccccc2)oc2c1ccc1ccccc12`, the GI50 in test [1] is 30 µM; in test [2], 30.9 µM; in test [3], 23.1 µM; in test [4] it was 29.3 µM; in [5] it was 30.5 µM; in test [6], 27.9 µM. Besides, the GI50 in test [7] was 23.5 µM; in [8], 50.7 µM; in test [9], 12.5 µM; in test [10], 29.6 µM. Also, the TGI in test [1], in [2], in test [3], in test [4], in test [5] and in test [6] was over 100 µM in each case. The TGI was 51.5 µM in [7], over 100 µM in test [8], 67.9 µM in [9] and over 100 µM in test [10].
With `CC1(C)CCc2c(c(N=Nc3ccccc3F)c3ccccc3c2O)O1`, the GI50 was over 100 µM in [1]; 20.5 µM in test [2]; 59.8 µM in test [3]; over 100 µM in [4]; 38.6 µM in test [5]; 26.1 µM in [6]. The GI50 in test [7] was over 100 µM; in [8], 73.7 µM; in test [9], 17.6 µM; in test [10], 45.3 µM. Moreover, the TGI in test [1] was over 100 µM; in test [2], 51.2 µM; in test [3] it was over 100 µM; in test [4], over 100 µM; in test [5] it was over 100 µM; in [6] it was 60.3 µM. Further, the TGI in test [7] was over 100 µM; in test [8], over 100 µM; in test [9] it was 37.9 µM; in test [10], over 100 µM.
With `O=C(c1ccccc1)C1OC1C(=O)c1ccccc1` (centres undefined), the GI50 is 2.86 µM in test [1]; 1.77 µM in test [2]; 4.72 µM in test [3]; 4.28 µM in test [4]; 0.323 µM in [5]; 4.35 µM in test [6]. Further, the GI50 in test [8] was 3.86 µM; in test [9], 3.31 µM. Besides, the TGI was over 100 µM in [1]; 6.7 µM in test [2]; 25.7 µM in test [3]; 44.5 µM in [4]; 2.24 µM in test [5]; 84.9 µM in test [6]. Moreover, the TGI was 25.2 µM in test [8] and over 100 µM in [9].
Regarding `O=C1c2cc3c(cc2-c2c1c1ccc(F)cc1c(=O)n2C[C@H](O)[C@H](O)[C@H](O)CO)OCO3`, the GI50 in test [1] is 0.174 µM; in test [2], 0.167 µM; in [3] it was 0.204 µM; in test [4] it was 0.282 µM; in test [5], 0.0313 µM; in [6] it was 0.209 µM. In addition, the GI50 in [8] is 0.253 µM; in test [9], 0.342 µM; in [10], 0.112 µM. The TGI in test [1] worked out at 0.409 µM; in test [2] it was 0.431 µM; in test [3] it was 14.9 µM; in test [4] it was 1.51 µM; in [5], 0.228 µM; in [6], 21.6 µM. Further, the TGI in test [8] stood at 0.866 µM; in test [9], 6.18 µM; in test [10] it was 0.52 µM.
`CCN(CC)CCCNc1n[n+]([O-])c2ccccc2[n+]1[O-]`: the TGI was over 100 µM in [1]; over 100 µM in test [3]; over 100 µM in test [4]; 26.5 µM in test [5]; 33.4 µM in test [6]; 11.4 µM in test [7]. Also, the results for the TGI in [8] and in test [9] were 69.7 µM and 31.4 µM, respectively.
As for `NNc1nc2ccccc2o1`, the TGI in test [1], in [3], in test [4], in test [5], in test [6] and in [7] was over 100 µM in each case. Moreover, the TGI in test [8] and in test [9] was over 100 µM each time.
In the case of `Cc1nc2ccccc2c(/C=C/c2ccccc2)c1C(=O)/C=C/c1ccc(C(F)(F)F)cc1`, the GI50 in [1] was 1.86 µM; in test [3] it was 1.55 µM; in [4], 1.74 µM; in test [5], 1.6 µM; in test [6], 1.22 µM; in test [7], 0.623 µM. Also, the figures for the GI50 in [8] and in test [9] were 1.93 µM and 1.65 µM, respectively. Besides, the TGI is 3.55 µM in test [1]; 5.02 µM in test [3]; 3.27 µM in test [4]; 6.32 µM in test [5]; 2.71 µM in [6]; over 100 µM in test [7]. The TGI in test [8] was determined as 4.45 µM; in test [9], 3.38 µM.
Regarding `COc1ccc2c(c1)C(=O)c1c-2c(N2CCN(C(=O)CCNCCNCCN)CC2)nc2ccccc12`, the GI50 in test [1] is 6.86 µM; in test [2], 16.8 µM; in [3] it was 10.3 µM; in [4] it was 2.04 µM; in test [5] it was 11.2 µM; in [6], 2.51 µM. The GI50 was 1 µM in [7], 7.25 µM in [9] and 2.93 µM in test [10]. The TGI in [1] was determined as 30 µM; in test [2], 61.2 µM; in test [3] it was 25.9 µM; in test [4] it was 3.66 µM; in [5], 41.1 µM; in [6], 6.62 µM. In addition, the TGI was found to be 2.18 µM in test [7], 27.5 µM in test [9] and 7.51 µM in test [10].
On to `CCN(CCO)CCCC(C)Nc1ccnc2cc(Cl)ccc12` (centres undefined), for which the GI50 in test [1], in test [2], in test [3], in [4], in test [5] and in test [6] was over 100 µM each time. Also, the GI50 in [9] and in [10] was over 100 µM each time. Also, the TGI in [1], in [2], in test [3], in test [4], in [5] and in test [6] was over 100 µM each time. The TGI in test [9] and in test [10] was over 100 µM throughout.
Consider `O=C1OC(c2ccc(Cl)cc2)=N/C1=C\c1ccccc1`, for which the TGI in test [1], in test [2], in [3], in [4], in test [5] and in [6] was over 100 µM in each case. Also, the TGI in test [8], in [9] and in test [10] was over 100 µM each time.
